In ChEMBL document CHEMBL1914304 (J Med Chem, 2011) one finds Activity and selectivity ratio data, which are given here for 23 molecules.

Molecules are shown by their SMILES.

The subject of one data set is HEK293. As to the kind of experiment: Cytotoxicity against human HEK293 cells after 72 hrs by luminescence assay. The format is cell-based. The settings on record: hek293, 72 h.
In a further data set the test system is Raji. As to the kind of experiment: Cytotoxicity against human Raji cells after 72 hrs by luminescence assay. It counts as cell-based.
The subject of the next data set is HepG2. As to the kind of experiment: Cytotoxicity against human HepG2 cells after 72 hrs by luminescence assay. The format is cell-based. As to conditions: hepg2, 72 h.
A further data set concerns BJ. As to the kind of experiment: Cytotoxicity against human BJ cells after 72 hrs by luminescence assay. The format is cell-based.
Data set [1] can be described thus: Selectivity ratio of EC50 for human HepG2 cells to EC50 for Plasmodium falciparum.

As to `COc1cccc(N(CC(O)COc2ccccc2C(=O)CCc2ccc(F)cc2)c2ccccc2)c1.Cl` (racemic), the Activity result with HEK293, in the data set with Raji, in the data set on HepG2 and with BJ was “Non-toxic” each time. Besides, the selectivity ratio in data set [1] is over 10.

Regarding `Cl.O=C(CCc1ccc(F)cc1)c1ccccc1OCC(O)CNCc1ccccc1` (racemic), the Activity entry in the data set with HEK293, in the data set with Raji, with HepG2 and in the data set on BJ was “Non-toxic” each time. Besides, the selectivity ratio in data set [1] was over 10.

With `Cl.O=C(CCc1ccc(F)cc1)c1ccccc1OCC(O)CN1CCN(c2ccc(Cl)c(Cl)c2)CC1` (racemic), the Activity entry with HEK293, with Raji, with HepG2 and in the data set with BJ was “Non-toxic” throughout. In addition, in data set [1], the selectivity ratio is over 10.

For the molecule `Cl.O=C(CCc1ccc(F)cc1)c1cc(F)ccc1OCC(O)CN1CCCCC1` (racemic), the Activity result in the data set with HEK293, with Raji, with HepG2 and in the data set on BJ was “Non-toxic” each time. The selectivity ratio in data set [1] is over 10.

On to `Cc1cccc(N(CC(O)COc2ccccc2C(=O)CCc2ccccc2)c2ccccc2)c1.Cl` (racemic), for which the Activity result in the data set on HEK293, in the data set on Raji, in the data set on HepG2 and in the data set on BJ was “Non-toxic” each time. For the same molecule, in data set [1], the selectivity ratio was over 10.

Regarding `CCCN(CCC)CC(O)COc1ccccc1C(=O)CCc1ccc(F)cc1.Cl` (racemic), the Activity entry in the data set with HEK293, in the data set on Raji, in the data set on HepG2 and in the data set on BJ was “Non-toxic” throughout. For the same molecule, in data set [1], the selectivity ratio is over 10.

For the molecule `Cl.O=C(CCc1ccc(F)cc1)c1cc(F)ccc1OCC(O)CN(C1CCCCC1)C1CCCCC1` (racemic), the Activity result with HEK293, with Raji, with HepG2 and in the data set on BJ was “Non-toxic” each time. Further, the selectivity ratio in data set [1] is over 10.

`Cl.Nc1ccc(N2CCN(CC(O)COc3ccccc3C(=O)CCc3ccc(F)cc3)CC2)cc1` (racemic): the Activity result with HEK293, with Raji, in the data set with HepG2 and with BJ was “Non-toxic” throughout. Moreover, the selectivity ratio in data set [1] is over 10.

On to `COc1cccc(N2CCN(CC(O)COc3ccc(F)cc3C(=O)CCc3ccccc3)CC2)c1.Cl` (racemic), for which the Activity entry with HEK293, in the data set on Raji, with HepG2 and in the data set with BJ was “Non-toxic” throughout. Also, in data set [1], the selectivity ratio is over 10.

Consider `Cl.O=C(CCc1ccc(F)cc1)c1cc(F)ccc1O`, for which the Activity result with HEK293, in the data set with Raji, with HepG2 and with BJ was “Non-toxic” each time. Further, the selectivity ratio in data set [1] is over 10.

`Cl.O=C(CCc1ccc(F)cc1)c1ccccc1OCC(O)CN(C1CCCCC1)C1CCCCC1` (racemic): the Activity entry in the data set on HEK293, in the data set on Raji, in the data set with HepG2 and with BJ was “Non-toxic” in each case. Besides, the selectivity ratio in data set [1] is over 10.

`Cl.O=C(/C=C/c1ccc(F)cc1)c1cc(F)ccc1O`: the Activity result in the data set with HEK293, in the data set with Raji, in the data set with HepG2 and with BJ was “Non-toxic” in each case. For the same molecule, in data set [1], the selectivity ratio is over 10.

Turning to `Cl.O=C(CCc1ccc(F)cc1)c1cc(F)ccc1OCC(O)CN1CCC(O)CC1` (racemic), the Activity result with HEK293, in the data set on Raji, in the data set with HepG2 and in the data set with BJ was “Non-toxic” throughout. Also, the selectivity ratio in data set [1] is over 10.

For `Cl.O=C(CCc1ccc(F)cc1)c1ccccc1OCC1CO1` (racemic), the Activity result in the data set with HEK293, in the data set on Raji, in the data set with HepG2 and in the data set with BJ was “Non-toxic” throughout. Besides, in data set [1], the selectivity ratio is over 10.

`Cc1ccc(N2CCN(CC(O)COc3ccc(F)cc3C(=O)CCc3ccc(F)cc3)CC2)cc1.Cl` (racemic): the Activity result with HEK293, with Raji, in the data set on HepG2 and in the data set on BJ was “Non-toxic” in each case. In data set [1], the selectivity ratio was over 10.

With `Cl.O=C(CCc1ccc(F)cc1)c1ccccc1OCC(O)CN1CCN(c2ccc([N+](=O)[O-])cc2)CC1` (racemic), the Activity entry with HEK293, with Raji, in the data set on HepG2 and with BJ was “Non-toxic” in each case. Further, the selectivity ratio in data set [1] is over 10.

With `Cl.O=C(CCc1ccc(F)cc1)c1ccccc1O`, the Activity result in the data set with HEK293, in the data set with Raji, in the data set on HepG2 and in the data set with BJ was “Non-toxic” each time. The selectivity ratio in data set [1] was over 10.

As for `Cl.O=C(CCc1ccccc1)c1ccccc1OCC(O)CN1CCN(c2ccc([N+](=O)[O-])cc2)CC1` (racemic), the Activity result in the data set with HEK293, with Raji, in the data set on HepG2 and in the data set with BJ was “Non-toxic” in each case. In data set [1], the selectivity ratio was over 10.

With `Cl.O=C(CCc1ccccc1)c1ccccc1OCC(O)CN1CCCCC1` (racemic), the Activity result with HEK293, in the data set with Raji, in the data set with HepG2 and in the data set on BJ was “Non-toxic” in each case. The selectivity ratio in data set [1] is over 10.

Consider `Cl.O=C(CCc1ccc(F)cc1)c1ccccc1OCC(O)CN1CCC(c2ccc(Cl)cc2)CC1` (racemic), for which the Activity result in the data set with HEK293, with Raji, in the data set on HepG2 and with BJ was “Non-toxic” in each case. In data set [1], the selectivity ratio is over 10.

For the molecule `CC(C)c1nccn1CC(O)COc1ccccc1C(=O)CCc1ccccc1.Cl` (racemic), the Activity entry in the data set with HEK293, in the data set with Raji, in the data set with HepG2 and in the data set with BJ was “Non-toxic” in each case. In addition, the selectivity ratio in data set [1] is over 10.

On to `CN(CCc1ccccc1)CC(O)COc1ccccc1C(=O)CCc1ccc(F)cc1.Cl` (racemic), for which the Activity entry in the data set with HEK293, with Raji, in the data set on HepG2 and in the data set on BJ was “Non-toxic” throughout. For the same molecule, the selectivity ratio in data set [1] is over 10.

For the molecule `Cl.O=C(CCc1ccc(F)cc1)c1ccccc1OCC(O)CN1CCN(c2ccc(F)cc2)CC1` (racemic), the Activity entry in the data set on HEK293, in the data set with Raji, with HepG2 and in the data set on BJ was “Non-toxic” each time. Moreover, the selectivity ratio in data set [1] is over 10.
